Data: ChEMBL document CHEMBL1138824, “Design and synthesis of hydroxyethylene-based peptidomimetic inhibitors of human beta-secretase” (J Med Chem, 2004)
Residues, ends and D or L forms follow the SMILES beside them.

System: HEK293
Test: Effective concentration evaluated in HEK293 cells
Type: functional, cell-based
Details: Homo sapiens

Row | Structure (SMILES) | EC50
1 | CC(C)[C@H](NC(=O)C[C@H](O)[C@H](Cc1cc(F)cc(F)c1)NC(=O)C(O)c1ccccc1-c1ccccc1)C(=O)N[C@H]1C[C@@H](C(=O)O)C[C@@H](C(=O)O)C1 (some centres undefined) | > 10000 nM
2 | CCCN(CCC)C(=O)c1cccc(C(=O)N[C@@H](Cc2cc(F)cc(F)c2)[C@@H](O)C[C@@H](C)C(=O)NCC(C)C)c1 | 3000 nM
3 | CCCN(CCC)C(=O)c1cccc(C(=O)N[C@@H](Cc2cc(F)cc(F)c2)[C@@H](O)CC(=O)N[C@H](C(=O)N[C@H]2C[C@@H](C(=O)O)C[C@@H](C(=O)O)C2)C(C)C)c1 | 1000 nM

Molecular target: Beta-secretase (BACE) (Homo sapiens, UniProt Q9Y5Z0+P56817)
Test: Inhibition of human beta secretase in MBP-C125 assay.
Type: protein assay
Details: not given

Row | IC50 | Structure (SMILES)
4 | 3 nM | CSCC[C@H](NC(=O)[C@@H](NC(=O)OC(C)(C)C)C(C)C)C(=O)N[C@@H](CC(C)C)[C@@H](O)C[C@@H](C)C(=O)N[C@H](C(=O)NCc1ccccc1)C(C)C
5 | 6600 nM | CCCN(CCC)C(=O)c1cccc(C(=O)N[C@@H](Cc2cc(F)cc(F)c2)[C@@H](O)C[C@@H](CC)C(=O)N[C@H]2C[C@@H](OC)C[C@@H](OC)C2)c1
6 | 240 nM | CCCN(CCC)C(=O)c1cccc(C(=O)N[C@@H](Cc2cc(F)cc(F)c2)[C@@H](O)C[C@@H](CC)C(=O)NCCCCCC(=O)O)c1
7 | 20 nM | CC(C)[C@H](NC(=O)C[C@H](O)[C@H](Cc1cc(F)cc(F)c1)NC(=O)C(O)c1ccccc1-c1ccccc1)C(=O)N[C@H]1C[C@@H](C(=O)O)C[C@@H](C(=O)O)C1 (some centres undefined)
8 | 410 nM | CCCN(CCC)C(=O)c1cccc(C(=O)N[C@@H](Cc2cc(F)cc(F)c2)[C@@H](O)C[C@@H](CC)C(=O)NCCCCCCCC(=O)OC)c1
9 | 50 nM | CCCN(CCC)C(=O)c1cccc(C(=O)N[C@@H](Cc2cc(F)cc(F)c2)[C@@H](O)C[C@@H](CC)C(=O)NC[C@H]2CC[C@H](C(=O)O)CC2)c1
10 | 26 nM | CCCN(CCC)C(=O)c1cccc(C(=O)N[C@@H](Cc2cc(F)cc(F)c2)[C@@H](O)C[C@@H](C)C(=O)NC[C@H]2CC[C@H](C(=O)O)CC2)c1
11 | 200 nM | CCCN(CCC)C(=O)c1cccc(C(=O)N[C@@H](Cc2cc(F)cc(F)c2)[C@@H](O)C[C@@H](CC)C(=O)NCCCCCCCC(=O)O)c1
12 | 4000 nM | CC(C)C[C@H](NC(=O)C(O)c1cccc2ccccc12)[C@@H](O)CC(=O)N[C@H](C(=O)N[C@@H](C)C(=O)N[C@@H](CCC(=O)O)C(=O)N[C@@H](Cc1ccccc1)C(=O)O)C(C)C (some centres undefined) (HELM PEPTIDE1{[O=C(C(O)c1cccc2ccccc12)[*:2]].[CC(C)C[C@H](N[*:1])[C@@H](O)CC(=O)[*:2]].V.A.E.F}$$$$V2.0)

The next lines start with the molecule.

Row | Structure (SMILES) | IC50
13 | CCCN(CCC)C(=O)c1cccc(C(=O)N[C@@H](Cc2cc(F)cc(F)c2)[C@@H](O)C[C@@H](CC)C(=O)NCCCCC(=O)O)c1 | 400 nM
14 | CC(C)C[C@H](NC(=O)C(O)c1cccc2ccccc12)[C@@H](O)C[C@H](C(=O)N[C@@H](C)C(=O)N[C@@H](CCC(=O)O)C(=O)N[C@@H](Cc1ccccc1)C(=O)O)C(C)C (some centres undefined) | 7500 nM
15 | CCCN(CCC)C(=O)c1cccc(C(=O)N[C@@H](Cc2cc(F)cc(F)c2)[C@@H](O)C[C@@H](CC)C(=O)NCCCC(=O)O)c1 | 310 nM
16 | CCCN(CCC)C(=O)c1cccc(C(=O)N[C@@H](Cc2cc(F)cc(F)c2)[C@@H](O)C[C@@H](CC(C)C)C(=O)NC[C@H]2CC[C@H](C(=O)O)CC2)c1 | 310 nM
17 | CCCN(CCC)C(=O)c1cccc(C(=O)N[C@@H](Cc2cc(F)cc(F)c2)[C@@H](O)C[C@@H](CC)C(=O)NCCC(=O)O)c1 | 2800 nM
18 | CCCN(CCC)C(=O)c1cccc(C(=O)N[C@@H](Cc2cc(F)cc(F)c2)[C@@H](O)C[C@@H](Cc2ccccc2)C(=O)NC[C@H]2CC[C@H](C(=O)O)CC2)c1 | 27000 nM
19 | CCCN(CCC)C(=O)c1cccc(C(=O)N[C@@H](Cc2cc(F)cc(F)c2)[C@@H](O)CCC(=O)NC[C@H]2CC[C@H](C(=O)O)CC2)c1 | 400 nM
20 | CCCN(CCC)C(=O)c1cccc(C(=O)N[C@@H](Cc2cc(F)cc(F)c2)[C@@H](O)C[C@@H](C)C(=O)NCC(C)C)c1 | 30 nM
21 | CCCN(CCC)C(=O)c1cccc(C(=O)N[C@@H](Cc2cc(F)cc(F)c2)[C@@H](O)C[C@@H](CC)C(=O)NCc2ccccc2)c1 | 1400 nM
22 | CCCN(CCC)C(=O)c1cccc(C(=O)N[C@@H](Cc2cc(F)cc(F)c2)[C@@H](O)CC(=O)N[C@H](C(=O)N[C@H]2C[C@@H](C(=O)O)C[C@@H](C(=O)O)C2)C(C)C)c1 | 1 nM
23 | CCC[C@H](C[C@H](O)[C@H](Cc1cc(F)cc(F)c1)NC(=O)c1cccc(C(=O)N(CCC)CCC)c1)C(=O)NC[C@H]1CC[C@H](C(=O)O)CC1 | 45 nM
24 | CSCC[C@H](NC(=O)[C@@H](NC(C)=O)C(C)C)C(=O)N[C@@H](CC(C)C)[C@@H](O)C[C@H](C(=O)N[C@@H](C)C(=O)N[C@@H](CCC(=O)O)C(=O)N[C@@H](Cc1ccccc1)C(=O)O)C(C)C (HELM PEPTIDE1{[ac].V.M.[CC(C)C[C@H](N[*:1])[C@@H](O)C[C@H](C(=O)[*:2])C(C)C].A.E.F}$$$$V2.0) | 30 nM
